Experimental data from US8697699B2, “Imidazopyrazine SYK inhibitors” (Gilead Connecticut, Inc., priority 2008, dated 2014).
Where a name gives a salt, the structure may show the parent alone.

| melting point | SMILES |
| --- | --- |
| 188 to 215 °C | COc1ccc(Nc2nc(-c3cccc(C(=O)Nc4ccc(C(=O)O)cc4C)c3)cn3ccnc23)cc1OC (as salt: hydrochloride) [Example 2, 4-(3-(8-(3,4-dimethoxyphenylamino)imidazo[1,2-a]pyrazin-6-yl)benzamido)-3-methylbenzoic acid hydrochloride salt] |
| 154 to 160 °C | COc1ccc(Nc2nc(-c3cccc(C(=O)Nc4ccc(C(=O)OCc5ccccc5)cc4)c3)cn3ccnc23)cc1OC [Example 3, benzyl 4-(3-(8-(3,4-dimethoxyphenylamino)imidazo[1,2-a]pyrazin-6-yl)benzamido)benzoate] |
